Source: PubChem BioAssay AID1259407 (Chemical Carcinogenesis Research Information System (CCRIS), 2018)
Calls of active or inactive are those of the source. The rule behind the calls is not given here.

Test system: CCRIS mutagenicity, Ames/micronucleus/aberration tests
Assay: CCRIS mutagenicity studies
[1] = Test System: AMES SALMONELLA TYPHIMURIUM, Strain/Indicator: TA98, Metabolic Activation: NONE, Method: STANDARD PLATE
[2] = Test System: AMES SALMONELLA TYPHIMURIUM, Strain/Indicator: TA100, Metabolic Activation: NONE, Method: STANDARD PLATE
[3] = Test System: AMES SALMONELLA TYPHIMURIUM, Strain/Indicator: TA1538, Metabolic Activation: RAT, LIVER, S-9, AROCLOR 1254, Method: STANDARD PLATE
[4] = Test System: AMES SALMONELLA TYPHIMURIUM, Strain/Indicator: TA100, Metabolic Activation: NONE, Method: PREINCUBATION
[5] = Test System: AMES SALMONELLA TYPHIMURIUM, Strain/Indicator: TA100, Metabolic Activation: RAT, LIVER, S-9, AROCLOR 1254, Method: PREINCUBATION

Nc1cc([N+](=O)[O-])c(N)cc1F
mutagenic call [1]: active; positive | mutagenic call (Test System: AMES SALMONELLA TYPHIMURIUM, Strain/Indicator: TA98, Metabolic Activation: RAT, LIVER, S-9, AROCLOR 1254, Method: STANDARD PLATE): active; positive | mutagenic call [2]: inactive; negative | mutagenic call (Test System: AMES SALMONELLA TYPHIMURIUM, Strain/Indicator: TA100, Metabolic Activation: RAT, LIVER, S-9, AROCLOR 1254, Method: STANDARD PLATE): active; positive | mutagenic call (Test System: AMES SALMONELLA TYPHIMURIUM, Strain/Indicator: TA1535, Metabolic Activation: NONE, Method: STANDARD PLATE): inactive; negative | mutagenic call (Test System: AMES SALMONELLA TYPHIMURIUM, Strain/Indicator: TA1535, Metabolic Activation: RAT, LIVER, S-9, AROCLOR 1254, Method: STANDARD PLATE): inactive; negative | mutagenic call (Test System: AMES SALMONELLA TYPHIMURIUM, Strain/Indicator: TA1537, Metabolic Activation: NONE, Method: STANDARD PLATE): active; positive | mutagenic call (Test System: AMES SALMONELLA TYPHIMURIUM, Strain/Indicator: TA1537, Metabolic Activation: RAT, LIVER, S-9, AROCLOR 1254, Method: STANDARD PLATE): active; positive | mutagenic call (Test System: AMES SALMONELLA TYPHIMURIUM, Strain/Indicator: TA1538, Metabolic Activation: NONE, Method: STANDARD PLATE): active; positive | mutagenic call [3]: active; positive

O=[N+]([O-])c1ccccc1CO
mutagenic call (Test System: AMES SALMONELLA TYPHIMURIUM, Strain/Indicator: TA98, Metabolic Activation: NONE, Method: PREINCUBATION): inactive; negative | mutagenic call [4]: inactive; negative | mutagenic call [5]: inactive; negative

Nc1c(N=Nc2ccc(-c3ccc(N=Nc4cc(S(=O)(=O)O)c5ccccc5c4N)cc3)cc2)cc(S(=O)(=O)O)c2ccccc12
mutagenic call (Test System: AMES SALMONELLA TYPHIMURIUM, Strain/Indicator: TA98, Metabolic Activation: HAMSTER, LIVER, S-9, Method: PREINCUBATION (PRIVAL METHOD)): active; positive | mutagenic call [1]: inactive; negative | mutagenic call (Test System: AMES SALMONELLA TYPHIMURIUM, Strain/Indicator: TA98, Metabolic Activation: RAT, LIVER, S-9, PHENOBARBITAL, Method: STANDARD PLATE): inactive; negative | mutagenic call [2]: active; positive | mutagenic call (Test System: AMES SALMONELLA TYPHIMURIUM, Strain/Indicator: TA100, Metabolic Activation: RAT, LIVER, S-9, PHENOBARBITAL, Method: STANDARD PLATE): inactive; negative | mutagenic call (Test System: AMES SALMONELLA TYPHIMURIUM, Strain/Indicator: TA1538, Metabolic Activation: HAMSTER, LIVER, S-9, Method: STANDARD PLATE): inactive; negative | mutagenic call [3]: inactive; negative | mutagenic call (Test System: Ames Salmonella typhimurium, Strain/Indicator: TA98, Metabolic Activation: Rat, Liver, S-9, Sodium phenobarbitone, Method: Preincubation): inactive; negative, test conducted under both aerobic and anaerobic conditions. | mutagenic call (Test System: Ames Salmonella typhimurium, Strain/Indicator: TA1538, Metabolic Activation: Rat, Liver, S-9, Sodium phenobarbitone, Method: Preincubation): inactive; negative, test conducted under both aerobic and anaerobic conditions.

Oc1ccc(O)c(O)c1
mutagenic call (End Point: IN VITRO CHROMOSOMAL ABERRATIONS, Test System: HUMAN PERIPHERAL LYMPHOCYTES, Metabolic Activation: NONE): active; positive (ploidy changes) | mutagenic call (End Point: IN VITRO CHROMOSOMAL ABERRATIONS, Test System: HUMAN PERIPHERAL LYMPHOCYTES, Metabolic Activation: NONE, Method: FISH): active; positive (ploidy); greater effects on certain chromosomes | mutagenic call (End Point: IN VITRO CHROMOSOMAL ABERRATIONS, Test System: HUMAN PERIPHERAL LYMPHOCYTES, Metabolic Activation: NONE, Method: FISH - DUAL COLOR PROBES): active; positive (ploidy changes in chromosomes 7 and 8) | mutagenic call (End Point: IN VITRO CHROMOSOMAL ABERRATIONS, Test System: HUMAN PERIPHERAL LYMPHOCYTES, Metabolic Activation: NONE, Method: FISH- DUAL COLOR PROBES): inactive; negative for translocations | mutagenic call (End Point: IN VITRO MICRONUCLEUS, Test System: HUMAN PERIPHERAL LYMPHOCYTES, Metabolic Activation: NONE, Method: FISH - DUAL COLOR PROBES): active; positive | mutagenic call (Test System: AMES SALMONELLA TYPHIMURIUM, Strain/Indicator: TA97, Metabolic Activation: RAT, LIVER, S-9, AROCLOR 1254, Method: PREINCUBATION): inactive; negative | mutagenic call (Test System: AMES SALMONELLA TYPHIMURIUM, Strain/Indicator: TA97, Metabolic Activation: RAT, LIVER, S-9, PHENOBARBITAL, Method: PREINCUBATION): inactive; negative | mutagenic call (Test System: AMES SALMONELLA TYPHIMURIUM, Strain/Indicator: TA98, Metabolic Activation: RAT, LIVER, S-9, AROCLOR 1254, Method: PREINCUBATION): inactive; negative | mutagenic call (Test System: AMES SALMONELLA TYPHIMURIUM, Strain/Indicator: TA98, Metabolic Activation: RAT, LIVER, S-9, PHENOBARBITAL, Method: PREINCUBATION): inactive; negative | mutagenic call (Test System: AMES SALMONELLA TYPHIMURIUM, Strain/Indicator: TA100, Metabolic Activation: NONE, Method: FLUCTUATION TEST): inactive; negative | mutagenic call [4]: inactive; negative | mutagenic call [5]: inactive; negative | mutagenic call (Test System: AMES SALMONELLA TYPHIMURIUM, Strain/Indicator: TA100, Metabolic Activation: RAT, LIVER, S-9, PCB, Method: FLUCTUATION TEST): active; positive | mutagenic call (Test System: AMES SALMONELLA TYPHIMURIUM, Strain/Indicator: TA100, Metabolic Activation: RAT, LIVER, S-9, PHENOBARBITAL, Method: PREINCUBATION): inactive; negative | mutagenic call (Test System: AMES SALMONELLA TYPHIMURIUM, Strain/Indicator: TA102, Metabolic Activation: NONE, Method: PREINCUBATION): inactive; negative | mutagenic call (Test System: AMES SALMONELLA TYPHIMURIUM, Strain/Indicator: TA102, Metabolic Activation: RAT, LIVER, S-9, AROCLOR 1254, Method: PREINCUBATION): inactive; negative | mutagenic call (Test System: AMES SALMONELLA TYPHIMURIUM, Strain/Indicator: TA104, Metabolic Activation: NONE, Method: PREINCUBATION): inactive; negative | mutagenic call (Test System: AMES SALMONELLA TYPHIMURIUM, Strain/Indicator: TA1535, Metabolic Activation: NONE, Method: PREINCUBATION): inactive; negative | mutagenic call (Test System: AMES SALMONELLA TYPHIMURIUM, Strain/Indicator: TA1535, Metabolic Activation: RAT, LIVER, S-9, AROCLOR 1254, Method: PREINCUBATION): inactive; negative | mutagenic call (Test System: CHINESE HAMSTER V-79, Strain/Indicator: V-79/6-THIOGUANINE, Metabolic Activation: NONE): active; positive

Nc1ccc2c(ccc3c4ccccc4ccc23)c1
mutagenic call (Test System: AMES SALMONELLA TYPHIMURIUM, Strain/Indicator: TA98, Metabolic Activation: RAT LIVER S-9, AROCLOR 1254 (10%), Method: STANDARD PLATE): active; positive | mutagenic call (Test System: AMES SALMONELLA TYPHIMURIUM, Strain/Indicator: TA98, Metabolic Activation: RAT, LIVER, CYTOSOL, AROCLOR 1254, Method: STANDARD PLATE): active; positive | mutagenic call (Test System: AMES SALMONELLA TYPHIMURIUM, Strain/Indicator: TA98, Metabolic Activation: RAT, LIVER, MICROSOMES, AROCLOR 1254, Method: STANDARD PLATE): active; positive
